According to patent US20250034136A1 (Nimbus Wadjet, Inc., priority 2023, published 2025):

Assays:
[1] = tested on: p21 induction in HCT116 cells; assay: p21 induction in HCT116 cells; format: cell-based; settings: Homo sapiens, HCT-116, 24 h, HCT116 cells, 24 h compound incubation; read-out: P21_EC50
Method in brief: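 HCT116 cells, 2,000/well, treated 24 h at 37 °C with 11-point compound dilutions in duplicate. Fixed, then immunostained for p21 and GAPDH and read by near-IR imaging at 800/700 nm. Normalized to DMSO (low) and reference WRN inhibitor (high) controls; EC50 from non-linear regression.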

[2] = molecular target: WRN (BV08), human Werner helicase (Uniprot Q14191, amino acids 517-1235 with L1074F point mutation) (Homo sapiens (Human), UniProt Q14191, L1074F); assay: WRN (BV08) ADP-Glo assay; format: biochemical; settings: class symbols A-E, read-out: ADP-Glo_hWRN_IC50
WRN (BV08), human Werner helicase (Uniprot Q14191, amino acids 517-1235 with L1074F point mutation), sequence (Q14191 other isoform, or with tags, fused parts or gaps L1074F (already in the parent)): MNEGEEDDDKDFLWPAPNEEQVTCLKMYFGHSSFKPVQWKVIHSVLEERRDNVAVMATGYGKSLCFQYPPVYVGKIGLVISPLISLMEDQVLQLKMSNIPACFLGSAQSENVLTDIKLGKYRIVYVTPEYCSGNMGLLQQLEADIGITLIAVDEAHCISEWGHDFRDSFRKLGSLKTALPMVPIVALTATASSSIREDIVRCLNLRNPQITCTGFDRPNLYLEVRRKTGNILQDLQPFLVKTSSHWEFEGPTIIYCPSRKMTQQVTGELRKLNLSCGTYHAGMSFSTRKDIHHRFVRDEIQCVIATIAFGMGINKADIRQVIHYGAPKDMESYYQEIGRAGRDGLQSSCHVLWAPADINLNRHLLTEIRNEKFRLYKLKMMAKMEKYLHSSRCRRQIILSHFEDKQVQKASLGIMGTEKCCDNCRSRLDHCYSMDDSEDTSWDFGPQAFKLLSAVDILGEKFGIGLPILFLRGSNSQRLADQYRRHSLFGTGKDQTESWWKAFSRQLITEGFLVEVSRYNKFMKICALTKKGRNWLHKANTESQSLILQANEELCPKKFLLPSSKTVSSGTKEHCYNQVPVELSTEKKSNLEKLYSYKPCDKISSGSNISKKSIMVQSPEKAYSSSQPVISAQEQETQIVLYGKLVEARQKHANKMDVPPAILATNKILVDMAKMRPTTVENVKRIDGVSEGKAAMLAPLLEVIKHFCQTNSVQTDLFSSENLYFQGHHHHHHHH

Row | SMILES | EC50 [1] [nM] | IC50 [2] [nM]
1 | CCc1c(N2CCN(C(=O)c3cccc4ncoc34)[C@H]3CC[C@@H]32)c(=O)c2nc(N(C)C)cnc2n1CC(=O)Nc1ccc(C(F)(F)F)cc1Cl [I-265, 2-{7-[(1S,6S)-5-(1,3-benzoxazole-7-carbonyl)-2,5-diazabicyclo[4.2.0]octan-2-yl]-2-(dimethylamino)-6-ethyl-8-oxo-5H,8H-pyrido[2,3-b]pyrazin-5-yl}-N-[2-chloro-4-(trifluoromethyl)phenyl]acetamide] | 2000 to 5000 | 5 to 50
2 | CCc1c(N2CCN(C(=O)c3ncnc(C)c3O)[C@H]3CC[C@@H]32)c(=O)c2nc(N[C@H](C)[C@H](C)O)cnc2n1CC(=O)Nc1ccc(C(F)(F)F)cc1Cl [I-266, N-[2-chloro-4-(trifluoromethyl)phenyl]-2-{6-ethyl-7-[(1S,6S)-5-(5-hydroxy-6-methylpyrimidine-4-carbonyl)-2,5-diazabicyclo[4.2.0]octan-2-yl]-2-{[(2R,3S)-3-hydroxybutan-2-yl]amino}-8-oxo-5H,8H-pyrido[2,3-b]pyrazin-5-yl}acetamide] | 500 to 2000 | 5 to 50
3 | CCc1c(N2CCN(C(=O)c3ncnc(C)c3O)[C@H]3CC[C@@H]32)c(=O)c2nc(N(C)[C@H]3C[C@H](OC)C3)cnc2n1CC(=O)Nc1ccc(C(F)(F)F)cc1Cl [I-267, N-[2-chloro-4-(trifluoromethyl)phenyl]-2-{6-ethyl-7-[(1S,6S)-5-(5-hydroxy-6-methylpyrimidine-4-carbonyl)-2,5-diazabicyclo[4.2.0]octan-2-yl]-2-{methyl[(1r,3r)-3-methoxycyclobutyl]amino}-8-oxo-5H,8H-pyrido[2,3-b]pyrazin-5-yl}acetamide] | < 500 | 5 to 50
4 | CCc1c(N2CCN(C(=O)c3ncnc(C)c3O)[C@H]3CC[C@@H]32)c(=O)c2nc(-c3cn[nH]c3)cnc2n1CC(=O)Nc1ccc(C(F)(F)F)cc1Cl [I-268, N-[2-chloro-4-(trifluoromethyl)phenyl]-2-{6-ethyl-7-[(1S,6S)-5-(5-hydroxy-6-methylpyrimidine-4-carbonyl)-2,5-diazabicyclo[4.2.0]octan-2-yl]-8-oxo-2-(1H-pyrazol-4-yl)-5H,8H-pyrido[2,3-b]pyrazin-5-yl}acetamide] | < 500 | ≤ 5
5 | CCc1c(N2CCN(C(=O)c3ncnc(C)c3O)[C@H]3CC[C@@H]32)c(=O)c2nc(N(C)C[C@H](C)OC)cnc2n1CC(=O)Nc1ccc(C(F)(F)F)cc1Cl [I-269, N-[2-chloro-4-(trifluoromethyl)phenyl]-2-{6-ethyl-7-[(1S,6S)-5-(5-hydroxy-6-methylpyrimidine-4-carbonyl)-2,5-diazabicyclo[4.2.0]octan-2-yl]-2-{[(2S)-2-methoxypropyl](methyl)amino}-8-oxo-5H,8H-pyrido[2,3-b]pyrazin-5-yl}acetamide] | < 500 | 5 to 50
6 | CCc1c(N2CCN(C(=O)c3ncnc(C)c3O)[C@H]3CC[C@@H]32)c(=O)c2nc(N3CC[C@@H](O)C3)cnc2n1CC(=O)Nc1ccc(C(F)(F)F)cc1Cl [I-270, N-[2-chloro-4-(trifluoromethyl)phenyl]-2-{6-ethyl-7-[(1S,6S)-5-(5-hydroxy-6-methylpyrimidine-4-carbonyl)-2,5-diazabicyclo[4.2.0]octan-2-yl]-2-[(3R)-3-hydroxypyrrolidin-1-yl]-8-oxo-5H,8H-pyrido[2,3-b]pyrazin-5-yl}acetamide] | 500 to 2000 | 5 to 50
7 | CCc1c(N2CCN(C(=O)c3ncnc(C)c3O)[C@H]3CC[C@@H]32)c(=O)c2nc(N3CC[C@H](O)C3)cnc2n1CC(=O)Nc1ccc(C(F)(F)F)cc1Cl [I-271, N-[2-chloro-4-(trifluoromethyl)phenyl]-2-{6-ethyl-7-[(1S,6S)-5-(5-hydroxy-6-methylpyrimidine-4-carbonyl)-2,5-diazabicyclo[4.2.0]octan-2-yl]-2-[(3S)-3-hydroxypyrrolidin-1-yl]-8-oxo-5H,8H-pyrido[2,3-b]pyrazin-5-yl}acetamide] | 500 to 2000 | 5 to 50
8 | CCc1c(N2CCN(C(=O)c3ncnc(C)c3O)[C@H]3CC[C@@H]32)c(=O)c2nc(-c3cncs3)cnc2n1CC(=O)Nc1ccc(C(F)(F)F)cc1Cl [I-272, N-[2-chloro-4-(trifluoromethyl)phenyl]-2-{6-ethyl-7-[(1S,6S)-5-(5-hydroxy-6-methylpyrimidine-4-carbonyl)-2,5-diazabicyclo[4.2.0]octan-2-yl]-8-oxo-2-(1,3-thiazol-5-yl)-5H,8H-pyrido[2,3-b]pyrazin-5-yl}acetamide] | < 500 | 5 to 50
9 | CCc1c(N2CCN(C(=O)c3c(Oc4cnn(C)c4)ncc(C)c3O)[C@H]3CC[C@@H]32)c(=O)c2nc(N(C)C)cnc2n1CC(=O)Nc1ccc(C(F)(F)F)cc1Cl [I-273, N-[2-chloro-4-(trifluoromethyl)phenyl]-2-[2-(dimethylamino)-6-ethyl-7-[(1S,6S)-5-{4-hydroxy-5-methyl-2-[(1-methyl-1H-pyrazol-4-yl)oxy]pyridine-3-carbonyl}-2,5-diazabicyclo[4.2.0]octan-2-yl]-8-oxo-5H,8H-pyrido[2,3-b]pyrazin-5-yl]acetamide] | < 500 | 5 to 50
10 | CCc1c(N2CCN(C(=O)c3c(OC)ncc(OC)c3O)[C@H]3CC[C@@H]32)c(=O)c2nc(N(C)C)cnc2n1CC(=O)Nc1ccc(C(F)(F)F)cc1Cl [I-274] | < 500 | 5 to 50
11 | CCOc1ncc(C)c(O)c1C(=O)N1CCN(c2c(CC)n(CC(=O)Nc3ccc(C(F)(F)F)cc3Cl)c3ncc(N(C)C)nc3c2=O)[C@H]2CC[C@@H]21 [I-275, N-[2-chloro-4-(trifluoromethyl)phenyl]-2-[2-(dimethylamino)-7-[(1S,6S)-5-(2-ethoxy-4-hydroxy-5-methylpyridine-3-carbonyl)-2,5-diazabicyclo[4.2.0]octan-2-yl]-6-ethyl-8-oxo-5H,8H-pyrido[2,3-b]pyrazin-5-yl]acetamide] | < 500 | 5 to 50
12 | CCc1c(N2CCN(C(=O)c3c(OC)ncc(C(F)F)c3O)[C@H]3CC[C@@H]32)c(=O)c2nc(N(C)C)cnc2n1CC(=O)Nc1ccc(C(F)(F)F)cc1Cl [I-280, N-[2-chloro-4-(trifluoromethyl)phenyl]-2-{7-[(1S,6S)-5-[5-(difluoromethyl)-4-hydroxy-2-methoxypyridine-3-carbonyl]-2,5-diazabicyclo[4.2.0]octan-2-yl]-2-(dimethylamino)-6-ethyl-8-oxo-5H,8H-pyrido[2,3-b]pyrazin-5-yl}acetamide] | > 5000 | 5 to 50
13 | CCc1c(N2CCN(C(=O)c3c(OC(F)F)ncc(C)c3O)[C@H]3CC[C@@H]32)c(=O)c2nc(N(C)C)cnc2n1CC(=O)Nc1ccc(C(F)(F)F)cc1Cl [I-281, N-[2-chloro-4-(trifluoromethyl)phenyl]-2-{7-[(1S,6S)-5-[2-(difluoromethoxy)-4-hydroxy-5-methylpyridine-3-carbonyl]-2,5-diazabicyclo[4.2.0]octan-2-yl]-2-(dimethylamino)-6-ethyl-8-oxo-5H,8H-pyrido[2,3-b]pyrazin-5-yl}acetamide] | < 500 | 5 to 50
14 | CCc1c(N2CCN(C(=O)c3c(OCCOC)ncc(C)c3O)[C@H]3CC[C@@H]32)c(=O)c2nc(N(C)C)cnc2n1CC(=O)Nc1ccc(C(F)(F)F)cc1Cl [I-282, N-[2-chloro-4-(trifluoromethyl)phenyl]-2-[2-(dimethylamino)-6-ethyl-7-[(1S,6S)-5-[4-hydroxy-2-(2-methoxyethoxy)-5-methylpyridine-3-carbonyl]-2,5-diazabicyclo[4.2.0]octan-2-yl]-8-oxo-5H,8H-pyrido[2,3-b]pyrazin-5-yl]acetamide] | < 500 | 5 to 50
15 | CCc1c(N2CCN(C(=O)c3ncnc(C)c3O)[C@H]3CC[C@@H]32)c(=O)c2nc(-c3ccnc(OC)c3)cnc2n1CC(=O)Nc1ccc(C(F)(F)F)cc1Cl [I-283, N-[2-chloro-4-(trifluoromethyl)phenyl]-2-{6-ethyl-7-[(1S,6S)-5-(5-hydroxy-6-methylpyrimidine-4-carbonyl)-2,5-diazabicyclo[4.2.0]octan-2-yl]-2-(2-methoxypyridin-4-yl)-8-oxo-5H,8H-pyrido[2,3-b]pyrazin-5-yl}acetamide] | < 500 | ≤ 5
16 | CCc1c(N2CCN(C(=O)c3ncnc(C)c3O)[C@H]3CC[C@@H]32)c(=O)c2nc(C3=CCOCC3)cnc2n1CC(=O)Nc1ccc(C(F)(F)F)cc1Cl [I-284, N-[2-chloro-4-(trifluoromethyl)phenyl]-2-[2-(3,6-dihydro-2H-pyran-4-yl)-6-ethyl-7-[(1S,6S)-5-(5-hydroxy-6-methylpyrimidine-4-carbonyl)-2,5-diazabicyclo[4.2.0]octan-2-yl]-8-oxo-5H,8H-pyrido[2,3-b]pyrazin-5-yl]acetamide] | < 500 | 5 to 50
17 | CCc1c(N2CCN(C(=O)c3ncnc(C)c3O)[C@H]3CC[C@@H]32)c(=O)c2nc(CN3CCOCC3)cnc2n1CC(=O)Nc1ccc(C(F)(F)F)cc1Cl [I-285, N-[2-chloro-4-(trifluoromethyl)phenyl]-2-{6-ethyl-7-[(1S,6S)-5-(5-hydroxy-6-methylpyrimidine-4-carbonyl)-2,5-diazabicyclo[4.2.0]octan-2-yl]-2-[(morpholin-4-yl)methyl]-8-oxo-5H,8H-pyrido[2,3-b]pyrazin-5-yl}acetamide] | 500 to 2000 | 5 to 50
18 | CCc1c(N2CCN(C(=O)c3c(OC)ncc(C4CC4)c3O)[C@H]3CC[C@@H]32)c(=O)c2nc(N(C)C)cnc2n1CC(=O)Nc1ccc(C(F)(F)F)cc1Cl [I-286, N-[2-chloro-4-(trifluoromethyl)phenyl]-2-{7-[(1S,6S)-5-(5-cyclopropyl-4-hydroxy-2-methoxypyridine-3-carbonyl)-2,5-diazabicyclo[4.2.0]octan-2-yl]-2-(dimethylamino)-6-ethyl-8-oxo-5H,8H-pyrido[2,3-b]pyrazin-5-yl} acetamide] | < 500 | 5 to 50
